# “Also recorded” adds a separate entry of the source. Where two headings read alike, the source gives them in different places.
# Legend:
# [1] = parameters: method as in PMID 23828940; conditions: cell lysate, original CETSA protocol; cited from earlier work
# [2] = target: T1, 25 kDa protein band in PC12 SOD1^G93A cells (Rattus norvegicus, UniProt P62260); experiment: Competition of PRAPP photoaffinity labeling of the 25 kDa band in PC12-SOD1^G93A cells; format: binding; conditions: for concentration-dependent disappearance of the 25 kDa protein band in competition with PRAPP: scenario 1
# T1 construct: we identified a 25 kDa covalently modified protein band in the PC12 SOD1^G93A cell line; endogenous in cells; host or cells: PC12-SOD1^G93A cells (live-cell UV photolabeling, then lysis)
# T1 sequence (P62260 1-255): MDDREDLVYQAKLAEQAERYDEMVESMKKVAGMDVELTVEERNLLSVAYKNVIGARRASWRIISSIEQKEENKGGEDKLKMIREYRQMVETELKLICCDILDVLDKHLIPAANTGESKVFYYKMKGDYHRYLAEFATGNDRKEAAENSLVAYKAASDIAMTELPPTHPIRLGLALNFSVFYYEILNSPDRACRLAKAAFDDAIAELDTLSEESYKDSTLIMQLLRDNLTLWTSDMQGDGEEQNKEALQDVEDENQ
# Description: PC12-SOD1^G93A cells were cultured and grown to 90% confluency (in 6-well plates) and washed once with PBS followed by the addition of serum medium containing the appropriate analyte at the indicated concentrations. Three incubation scenarios were studied (at 37 °C): Scenario 1) 12 h preincubation with PRAPP in the absence of MG-132; Scenario 2) 12 h preincubation with PRAPP in the absence of MG-132 followed by an additional 24 h incubation (control); and Scenario 3) 12 h preincubation with PRAPP followed by the addition of MG-132 (100 nM) and an additional 24 h incubation. After incubation, the medium was discarded and cells were washed with PBS (1 × 300 μL). Fresh serum-free medium was added, and the cells were irradiated with UV light (312 nm, 120 V, 60 Hz, 0.2 A [Spectroline model EB-160C], distance ∼4 cm) for 15 min. The medium was removed, cells were washed with PBS (2 × 500 μL), and 200 μL of lysis buffer containing Tris HCl (25 mM, pH 7.6), NaCl (150 mM), 1% NP40, 1% sodium deoxycholate, 0.1% SDS, and protease inhibitor cocktail (Sigma-Aldrich, 1:100 v/v) was added to each well. Complete lysis was observed by a microscope after 10 min at 4 °C with agitation. Each lysate was centrifuged at 4 °C for 5 min at 13,000 rpm, and the resulting supernatant was concentrated with a centrifugal filter (Amicon Ultra Centrifugal Filters 3K cutoff, Millipore), normalized to 1.0 mg/mL by the Bradford assay, and analyzed immediately or stored at −80 °C for subsequent analysis.
# In a darkened (wrapped with aluminum foil) Eppendorf tube, each lysate (30 μL [30 μg]) was incubated with 10 μL of the freshly prepared “click” premix containing CuSO4 (5 mM), sodium ascorbate (5 mM), TBTA (200 μM), and N3–Alexa-647 (50 μM) were added to PBS (50 mM, pH 7.4). The corresponding final concentrations within the lysate click incubation were: CuSO4 (1.25 mM), sodium ascorbate (1.25 mM), TBTA (50 μM), and N3–Alexa-647 (12.5 μM). The mixture was vortexed briefly and incubated for 1.5 h at 37 °C in the dark. NuPAGE LDS sample loading buffer (4 × 13 μL) was added, and the mixture was denatured in boiling water for 10 min. SDS-PAGE was performed on Novex Bis-Tris gel 4–12% with MES SDS running buffer (90 V constant for 30 min followed by 100 V for 90 min; load volume = 25 μL). Protein standards that gave appropriate visible and fluorescent bands for our application included the BioRad Precision Plus All Blue Protein Standard and Novex Pre-Stained Protein Standard. In-gel fluorescence was monitored (excitation λ = 635 nm; emission λ = 670 nm) using a Typhoon 9400 (GE Healthcare) fluorimager. Densitometric analysis and image refinement were carried out as needed using ImageJ software (NIH, open source). The contrast and brightness of images were modified using ImageJ and/or Microsoft Word to enhance visualization for publication purposes.
# [3] = tested on: PC12 SOD1^G93A cells; conditions: neuroprotection against MG-132-induced SOD1^G93A toxicity in PC12 cells, cited from earlier work
# [4] = tested on: 25 kDa covalently modified band in HAP1 cells; experiment: Photoaffinity labeling with HAP1 wild-type and Hsp27 knockout cells; format: binding; conditions: wild-type (WT) HAP1 cells
# Description: First, we conducted photoaffinity labeling studies with wild-type (WT) HAP1 cells to verify the existence of the 25 kDa covalent modification that we observed in PC12 cells.
# Figure 7 Photoaffinity Labeling Experiments with HAP1 cells. […] The nonspecific background modifications remain unchanged with increasing concentration of P3, further confirming the 25 kDa covalently modified band as a true target; (B) comparison of the photoaffinity labeling experiments with HAP1 wild-type (WT) cells and Hsp27 knockout (KO) cells at 15 μM PRAPP concentration.
# [5] = tested on: PC12 SOD1^G93A cells; experiment: Neuroprotection against MG-132-induced toxicity in PC12 cells expressing mutant SOD1^G93A (calcein-AM viability); format: cell-based; conditions: Rattus norvegicus, PC-12, MG-132-induced toxicity, inactive photoreactive controls, read-out: EC50
# Description: With this information in hand, we implemented a phenotypic drug discovery approach to identify a novel therapeutic for treating ALS. The study employed a rat PC12 cell-based assay that expresses SOD1^G93A mutation for screening a chemical library of more than 50,000 compounds to identify promising hits (Figure 1 compounds 3 and 4). The hits are based on attenuating proteasome inhibitor MG-132-induced SOD1^G93A cellular toxicity.
# Viability EC50 values were determined according to the previously reported assay procedure.[43] Briefly, PC12 cells were seeded at 15,000 cells/well in 96-well plates, and the medium was changed to remove the doxycycline 4 days prior to compound addition. Compounds were assayed in 12-point dose–response experiments to determine the potency and efficacy. The highest compound concentration tested was 32 μM, which was decreased by half with each subsequent dose. After a 24 h incubation with the analytes, MG-132 (400 nM) was added and the cells were incubated at 37 °C for 24 h. The cells were washed twice with PBS. Calcein-AM was added at a final concentration of 1 μM for 20 min at room temperature, and the fluorescence intensity was read in a POLARstar fluorescence plate reader (BMG). EC50 values were determined by standardizing fluorescent signal to DMSO treated controls. […] The presented data represent the mean average of duplicate experiments.
# [6] = target: T2, 14-3-3-E (Homo sapiens, UniProt P62258); experiment: Fluorescent thermal shift assay (FTSA) with 14-3-3-E; format: binding; conditions: SYPRO orange
# T2 construct: His-tag (TEV-cleavable) (cleaved yes); host or cells: E. coli (BL21)
# T2 sequence (P62258 1-255): T1 sequence (P62260 1-255)
# Description: His-tagged 14-3-3-E, B, and H plasmids were purchased from Addgene (plasmid ID# 31562, 39128, and 38814, respectively). E. coli (BL21) were transformed with extracted plasmids via heat shock and plated on selected media. Individual colonies were selected, grown, and sequenced to confirm gene presence. 1 L cultures were grown to an OD600 of 0.6 at 37 °C and 220 rpm. Protein expression was induced with 1 mM IPTG and expressed for 12 h at 100 rpm and room temperature (approximately 25 °C). Cells were spun down at 4000 rpm for 15 min at 4 °C and resuspended in lysis buffer containing 50 mM Tris (7.4), 150 mM NaCl, 0.08% DDM, 5 mM imidazole, and 5% glycerol (with an EDTA-free complete mini protease inhibitor cocktail). Cells were lysed via sonication, and the lysate was separated from cell debris by centrifugation at 15,000 rpm, 4 °C, for 45 min. The His-tagged protein was purified using QIAGEN Ni-NTA superflow columns, and the His-tag was removed with TEV protease. His-tag-removed proteins were further purified by size exclusion chromatography. His tag removal and size exclusion chromatography purification were done at the Northwestern University Protein Production core. 14-3-3-Q and 14-3-3-G proteins were purchased from Abchem (catalog numbers ab85270 and ab53869, respectively).
# All of the FTSA experiments were conducted in HEPES buffer (60 mM HEPES, 150 mM NaCl, pH 7.4). A DMSO balanced 8-point dilution series of the compound in HEPES buffer was prepared in a 96-well assay plate (200, 100, 50, 25, 12.5, 6.25, 3.125, and 0 μM). Then, a 5 μL volume of the dilution series was transferred to a 384-well PCR plate using a multichannel pipet, and the plate was centrifuged at 1000 rpm for 2 min (the plate was covered with an adhesive aluminum seal). The protein sample was premixed at a concentration of 0.04 μg/μL with a 5X concentration of SYPRO orange in HEPES buffer, and a 5 μL aliquot was added to the compound wells. The plate was covered with an optical adhesive seal and was shaken for 2 min, followed by centrifugation at 1000 rpm for 2 min. The thermal scan was performed from 20 to 90 °C with a temperature gradient of 0.5 °C/min. The fluorescence was measured on a Bio-Rad CFX384 real-time PCR instrument.
# [7] = hits and leads of the authors' earlier work, read-out: EC50
smiles,measurement,setting,value
Cc1nc2ccc(CN(C)c3ccc(C(=O)N[C@@H](CCC(=O)O)C(=O)O)s3)cc2c(=O)[nH]1 [raltitrexed],drug concentration of maximum response in ITDR CETSA,[1],100 to 250 µM
"CC1=NN(c2ccccc2)C(=O)C1 [edaravone, reference compound]",concentration-dependent disappearance of the 25 kDa protein band in competition with PRAPP,[2]; 30 μM PRAPP,did not show a quantifiable concentration-dependent disappearance
CN(Cc1cc(Cl)cc(Cl)c1)Cc1cc(=O)[nH][nH]1 [P3],competitor to PRAPP ratio at complete disappearance of the band,[2]; 30 μM PRAPP,32
same,EC50,"[2]; 30 μM PRAPP, scenario 1, n = 2, read-out: EC50 for the competition with PRAPP (25 kDa band intensity)",26700 nM
same,EC50,"[3]; leads of the authors' earlier work, read-out: EC50 (NP = neuroprotection)",400 nM
same,"competition of PRAPP labeling, band 1 around 25 kDa",[4],concentration-dependent disappearance
"C#CCNCc1c(F)c(F)c(N=[N+]=[N-])c(F)c1F [IPC2, N-(4-Azido-2,3,5,6-tetrafluorobenzyl)prop-2-yn-1-amine]",EC50,[5],> 16000 nM
"C#CCN(Cc1c(F)c(F)c(N=[N+]=[N-])c(F)c1F)Cc1cc(=O)n(C(C)=O)n1C(C)=O [IPC1, 1,1′-(5-(((4-Azido-2,3,5,6-tetrafluorobenzyl)(prop-2-yn-1-yl)amino)methyl)-3-oxo-1H-pyrazole-1,2(3H)-diyl)bis(ethan-1-one)]",EC50,[5],> 16000 nM
CN(Cc1cnc2nc(N)nc(N)c2n1)c1ccc(C(=O)N[C@@H](CCC(=O)O)C(=O)O)cc1 [methotrexate],drug concentration of maximum response in ITDR CETSA,[1],100 to 250 µM
O=C1CC(=O)CC(c2ccc(F)cc2)C1 [compound 3],EC50,[3]; [7],800 nM
CC(Oc1cc(C(F)(F)F)cc(C(F)(F)F)c1)C1CC(=O)CC(=O)C1 (stereo not drawn) [P1],concentration-dependent disappearance of the 25 kDa protein band in competition with PRAPP,[2]; 30 μM PRAPP,not compete out the 25 kDa covalently modified band in a concentration -dependent manner; also recorded: did not show a quantifiable concentration-dependent disappearance
same,25 kDa band intensity in competition with PRAPP,[2]; 480 μM P1 concentration,slight reduction of the 25 kDa band intensity
same,EC50,[3]; [7],300 nM
same,Tm shift (ΔTm),[6],did not show a Tm shift
Cc1cc(SCc2cc(=O)[nH][nH]2)c(C)cc1Cl [compound 4],EC50,[3]; [7],400 nM
